Test results reported in patent US6420330B1, “Use of quaternary carboxylic acid alkanolamine ester salts as microbicide agents” (Cognis Deutschland GmbH, priority 1997, dated 2002).

Legend:
Assay in all cases: DGHM suspension test, microbicidal activity
Type in all cases: cell-based
[1] = tested on: Candida albicans ATCC 10231
Description: (§1) The microbicidal activity of the quanterary carboxylic acid alkanolamine ester salts used in accordance with the invention was tested against the following selected test germs:
(§2) The effectiveness of the compound to be tested was determined by the suspension test in accordance with the guidelines of the Deutsche Gesellschaft for Hygiene and Mikrobiologie (DGHM). Test solutions containing quatemary carboxylic acid alkanolamine ester salts in the quantities shown in the Tables of 50, 100, 200, 400 and 800 mg/l were prepared using water with a hardness of 17° dH and optionally isopropanol.
(§3) At room temperatures, quantities of 0.1 ml test germ suspension were pipetted into test tubes containing 10 ml of the test solutions described above and mixed. After various contact times of 5, 15, 30 and 60 minutes, 1 ml of material was taken from the test tubes by pipette and transferred to 9 ml inactivator solution (inactivators: 3.0% Tween, 0.3% lecithin, 0.1% histidine). After in activation for at least 5 and at most 30 minutes, the living germ count was determined by plating out onto casein peptone-soybean flour peptone (CaSo)-agar plates. Using a spiral plater, the inactivating mixture was directly plated out onto CaSo-agar. The samples were incubated for 24 to 72 hours at 37° C. and macroscopically evaluated for growth. The destruction time or the residual germ count was determined in this way. The germ count of an unchallenged water control is related to the germ count of the inactivated test solution taking the dilution into account. The higher the value, the better the microbicidal effect. The symbol < means that the logarithmic reductuon factor is below the indicated value or, in the case of the symbol >, above the indicated value. The abbreviation CU stands for “concentration used”.

[2] = tested on: Pseudomonas aeruginosa ATCC 15442
Description: as §1, §2, §3

[3] = tested on: Staphylococcus aureus ATCC 6538
Description: as §1, §2, §3

[4] = CU 50 mg/l, contact time 5 mins.
[5] = CU 50 mg/l, contact time 15 mins.
[6] = CU 50 mg/l, contact time 30 mins.
[7] = CU 50 mg/l, contact time 60 mins.
[8] = CU 100 mg/l, contact time 5 mins.
[9] = CU 100 mg/l, contact time 15 mins.
[10] = CU 100 mg/l, contact time 30 mins.
[11] = CU 100 mg/l, contact time 60 mins.
[12] = CU 200 mg/l, contact time 5 mins.
[13] = CU 200 mg/l, contact time 15 mins.
[14] = CU 200 mg/l, contact time 30 mins.
[15] = CU 200 mg/l, contact time 60 mins.
[16] = CU 400 mg/l, contact time 5 mins.
[17] = CU 400 mg/l, contact time 15 mins.
[18] = CU 400 mg/l, contact time 30 mins.
[19] = CU 400 mg/l, contact time 60 mins.
[20] = CU 800 mg/l, contact time 5 mins.
[21] = CU 800 mg/l, contact time 15 mins.
[22] = CU 800 mg/l, contact time 30 mins.
[23] = CU 800 mg/l, contact time 60 mins.

`CCCCCCCCCC(=O)OCC[N+](C)(C)CCOC(=O)CCCCCCCCC.COS(=O)(=O)[O-]` [Example 10, dimethyl diethanolammonium dicapric acid ester methosulfate] gave a logarithmic reduction factor [1, 4] of 2.87, a logarithmic reduction factor [1, 5] of over 4.84 and a logarithmic reduction factor [1, 6] of over 4.89. The logarithmic reduction factor [1, 7] was over 4.80, the logarithmic reduction factor [1, 8] was 4.27 and the logarithmic reduction factor [1, 9] was over 4.84. For the same compound, the logarithmic reduction factor [1, 10] was over 4.89, the logarithmic reduction factor [1, 11] was over 4.80 and the logarithmic reduction factor [2, 8] was 3.11. The logarithmic reduction factor [2, 9] was 3.48, the logarithmic reduction factor [2, 10] was 3.95 and the logarithmic reduction factor [2, 11] was 4.84. It also gave a logarithmic reduction factor [2, 12] of 3.54, a logarithmic reduction factor [2, 13] of 4.51 and a logarithmic reduction factor [2, 14] of 5.50. It also gave a logarithmic reduction factor [2, 15] of 5.44, a logarithmic reduction factor [2, 16] of 4.31 and a logarithmic reduction factor [2, 17] of 5.04. It also gave a logarithmic reduction factor [2, 18] of 5.64, a logarithmic reduction factor [2, 19] of over 5.79 and a logarithmic reduction factor [3, 8] of over 5.56. The logarithmic reduction factor [3, 9] was over 5.55, the logarithmic reduction factor [3, 10] was over 5.72 and the logarithmic reduction factor [3, 11] was over 5.69. The logarithmic reduction factor [3, 12] was over 5.56, the logarithmic reduction factor [3, 13] was over 5.55 and the logarithmic reduction factor [3, 14] was over 5.72. It also gave a logarithmic reduction factor [3, 15] of over 5.69, a logarithmic reduction factor [3, 16] of over 5.56 and a logarithmic reduction factor [3, 17] of over 5.55. It also gave a logarithmic reduction factor [3, 18] of over 5.72 and a logarithmic reduction factor [3, 19] of over 5.69.
`CCCCCCCC(=O)OCC[N+](C)(C)CCOC(=O)CCCCCCC.COS(=O)(=O)[O-]` [Example 1, dimethyl diethanolammonium dicaprylic acid ester methosulfate] gave a logarithmic reduction factor [1, 4] of under 0.50, a logarithmic reduction factor [1, 5] of under 0.37 and a logarithmic reduction factor [1, 6] of under 0.35. The logarithmic reduction factor [1, 7] was under 0.36, the logarithmic reduction factor [1, 8] was under 0.50 and the logarithmic reduction factor [1, 9] was 0.41. It also gave a logarithmic reduction factor [1, 10] of 0.60, a logarithmic reduction factor [1, 11] of 0.70 and a logarithmic reduction factor [1, 12] of 1.53. For the same compound, the logarithmic reduction factor [1, 13] was 2.53, the logarithmic reduction factor [1, 14] was 2.91 and the logarithmic reduction factor [1, 15] was 3.61. For the same compound, the logarithmic reduction factor [1, 16] was over 4.5, the logarithmic reduction factor [1, 17] was over 4.37 and the logarithmic reduction factor [1, 18] was over 4.35. The logarithmic reduction factor [1, 19] was over 4.36, the logarithmic reduction factor [1, 20] was over 4.50 and the logarithmic reduction factor [1, 21] was over 4.37. It also gave a logarithmic reduction factor [1, 22] of over 4.35, a logarithmic reduction factor [1, 23] of over 4.36 and a logarithmic reduction factor [2, 4] of under 1.83. For the same compound, the logarithmic reduction factor [2, 5] was under 1.47, the logarithmic reduction factor [2, 6] was under 1.55 and the logarithmic reduction factor [2, 7] was under 1.56. It also gave a logarithmic reduction factor [2, 8] of under 1.83, a logarithmic reduction factor [2, 9] of under 1.47 and a logarithmic reduction factor [2, 10] of under 1.55. The logarithmic reduction factor [2, 11] was under 1.56, the logarithmic reduction factor [2, 12] was under 1.83 and the logarithmic reduction factor [2, 13] was under 1.47. The logarithmic reduction factor [2, 14] was under 1.55, the logarithmic reduction factor [2, 15] was under 1.56 and the logarithmic reduction factor [2, 16] was under 1.83. The logarithmic reduction factor [2, 17] was under 1.47, the logarithmic reduction factor [2, 18] was 3.22 and the logarithmic reduction factor [2, 19] was 4.41. For the same compound, the logarithmic reduction factor [2, 20] was over 5.83, the logarithmic reduction factor [2, 21] was over 5.47 and the logarithmic reduction factor [2, 22] was over 5.55. For the same compound, the logarithmic reduction factor [2, 23] was over 5.56, the logarithmic reduction factor [3, 4] was under 1.32 and the logarithmic reduction factor [3, 5] was under 1.71. The logarithmic reduction factor [3, 6] was under 1.23, the logarithmic reduction factor [3, 7] was under 1.32 and the logarithmic reduction factor [3, 8] was under 1.32. It also gave a logarithmic reduction factor [3, 9] of under 1.71, a logarithmic reduction factor [3, 10] of under 1.23 and a logarithmic reduction factor [3, 11] of under 1.32. It also gave a logarithmic reduction factor [3, 12] of under 1.32, a logarithmic reduction factor [3, 13] of under 1.71 and a logarithmic reduction factor [3, 14] of under 1.23. For the same compound, the logarithmic reduction factor [3, 15] was under 1.32, the logarithmic reduction factor [3, 16] was under 1.32 and the logarithmic reduction factor [3, 17] was under 1.1. The logarithmic reduction factor [3, 18] was 1.95, the logarithmic reduction factor [3, 19] was 3.54 and the logarithmic reduction factor [3, 20] was under 1.32. For the same compound, the logarithmic reduction factor [3, 21] was under 3.59, the logarithmic reduction factor [3, 22] was under 3.96 and the logarithmic reduction factor [3, 23] was over 5.32.
`CCCCCCCC(=O)OCC[N+](C)(CCOC(=O)CCCCCCC)CCOC(=O)CCCCCCC.COS(=O)(=O)[O-]` [Example 2, methyl triethanolammonium tricaprylic acid ester methosulfate] showed a logarithmic reduction factor [1, 4] of 3.44, a logarithmic reduction factor [1, 5] of over 4.71 and a logarithmic reduction factor [1, 6] of over 4.82. The logarithmic reduction factor [1, 7] was over 4.68, the logarithmic reduction factor [1, 8] was over 4.73 and the logarithmic reduction factor [1, 9] was over 4.71. It also gave a logarithmic reduction factor [1, 10] of over 4.82, a logarithmic reduction factor [1, 11] of over 4.68 and a logarithmic reduction factor [1, 12] of over 4.73. For the same compound, the logarithmic reduction factor [1, 13] was over 4.71, the logarithmic reduction factor [1, 14] was over 4.82 and the logarithmic reduction factor [1, 15] was over 4.68. For the same compound, the logarithmic reduction factor [1, 16] was over 4.73, the logarithmic reduction factor [1, 17] was over 4.71 and the logarithmic reduction factor [1, 18] was over 4.82. The logarithmic reduction factor [1, 19] was over 4.68, the logarithmic reduction factor [1, 20] was over 4.73 and the logarithmic reduction factor [1, 21] was over 4.71. It also gave a logarithmic reduction factor [1, 22] of under 4.82, a logarithmic reduction factor [1, 23] of over 4.68 and a logarithmic reduction factor [2, 4] of under 1.38. It also gave a logarithmic reduction factor [2, 5] of under 1.70, a logarithmic reduction factor [2, 6] of 3.31 and a logarithmic reduction factor [2, 7] of 3.98. The logarithmic reduction factor [2, 8] was under 1.38, the logarithmic reduction factor [2, 9] was 3.25 and the logarithmic reduction factor [2, 10] was 3.75. It also gave a logarithmic reduction factor [2, 11] of 4.49, a logarithmic reduction factor [2, 12] of 1.38 and a logarithmic reduction factor [2, 13] of 3.95. It also gave a logarithmic reduction factor [2, 14] of 4.40, a logarithmic reduction factor [2, 15] of over 5.59 and a logarithmic reduction factor [2, 16] of 4.08. It also gave a logarithmic reduction factor [2, 17] of over 5.70, a logarithmic reduction factor [2, 18] of over 5.68 and a logarithmic reduction factor [2, 19] of over 5.59. For the same compound, the logarithmic reduction factor [2, 20] was 4.42, the logarithmic reduction factor [2, 21] was over 5.70 and the logarithmic reduction factor [2, 22] was over 5.68. For the same compound, the logarithmic reduction factor [2, 23] was over 5.59, the logarithmic reduction factor [3, 4] was 3.21 and the logarithmic reduction factor [3, 5] was over 5.38. For the same compound, the logarithmic reduction factor [3, 6] was over 5.50, the logarithmic reduction factor [3, 7] was over 5.41 and the logarithmic reduction factor [3, 8] was 3.54. For the same compound, the logarithmic reduction factor [3, 9] was over 5.38, the logarithmic reduction factor [3, 10] was over 5.50 and the logarithmic reduction factor [3, 11] was over 5.41. The logarithmic reduction factor [3, 12] was 4.32, the logarithmic reduction factor [3, 13] was over 5.38 and the logarithmic reduction factor [3, 14] was over 5.50. It also gave a logarithmic reduction factor [3, 15] of over 5.41, a logarithmic reduction factor [3, 16] of over 5.56 and a logarithmic reduction factor [3, 17] of over 5.38. It also gave a logarithmic reduction factor [3, 18] of over 5.50, a logarithmic reduction factor [3, 19] of over 5.41 and a logarithmic reduction factor [3, 20] of over 5.56. For the same compound, the logarithmic reduction factor [3, 21] was over 5.38, the logarithmic reduction factor [3, 22] was over 5.50 and the logarithmic reduction factor [3, 23] was over 5.41.
